How the values were obtained:
CK1γ2 = biological target: T1, CK1γ2 (Homo sapiens, UniProt P78368); assay: Kinase panel, CaNDY 1 µM; assay type: biochemical; settings: CaNDY 1 µM relative to DMSO
T1 construct: purchased Carna Biosciences

CLK1 = CLK1 (Homo sapiens, UniProt P49759); assay: Kinase panel, CaNDY 1 µM; assay type: biochemical; parameters: purchased Carna Biosciences
Excerpt: Detailed information on the assay conditions is available on the website of Carna Biosciences (http://www.carnabio.com/english/index.html; Kobe, Japan). In brief, full-length human recombinant kinases were expressed using a baculovirus expression system as amino-terminal GST-fusion proteins, and purified by glutathione-Sepharose chromatography. The GenBank accession numbers of DYRK1A, DYRK1B, DYRK2, and DYRK3 were NP_001387.2, NP_004705.1, NP_003574.1, and NP_003573.2. […] For each compound, a DMSO solution was diluted in assay buffer to yield a final concentration of 1% DMSO. After incubation for one hour at room temperature, substrate phosphorylation was analyzed by electrophoretic separation of the substrate and products using a Caliper LC3000 platform (Caliper Life Sciences, Mountain View, CA, USA). The phosphorylated product (P)/(P + substrate) ratio was calculated at each concentration of each small molecule and the percent inhibition was expressed relative to a control assay in the absence of the small molecule. […] The IC50 of each compound was calculated by interpolation on a log-concentration-response curve fitted with a four-parameter logistic equation.
All kinase assays were carried out at Carna Biosciences. The inhibitory map was made with Kinome Render[36].

TYK2 = biological target: T2, TYK2 (Homo sapiens, UniProt P29597); assay: Kinase panel, CaNDY 1 µM; assay type: biochemical; settings: CaNDY 1 µM relative to DMSO
T2 construct: purchased Carna Biosciences

PIK3CA/PIK3R1 = biological target: T3, PIK3CA/PIK3R1 (Homo sapiens, UniProt P42336); assay: Kinase panel, CaNDY 1 µM; assay type: biochemical; settings: CaNDY 1 µM relative to DMSO
T3 construct: purchased Carna Biosciences
T3 sequence (P42336 whole entry): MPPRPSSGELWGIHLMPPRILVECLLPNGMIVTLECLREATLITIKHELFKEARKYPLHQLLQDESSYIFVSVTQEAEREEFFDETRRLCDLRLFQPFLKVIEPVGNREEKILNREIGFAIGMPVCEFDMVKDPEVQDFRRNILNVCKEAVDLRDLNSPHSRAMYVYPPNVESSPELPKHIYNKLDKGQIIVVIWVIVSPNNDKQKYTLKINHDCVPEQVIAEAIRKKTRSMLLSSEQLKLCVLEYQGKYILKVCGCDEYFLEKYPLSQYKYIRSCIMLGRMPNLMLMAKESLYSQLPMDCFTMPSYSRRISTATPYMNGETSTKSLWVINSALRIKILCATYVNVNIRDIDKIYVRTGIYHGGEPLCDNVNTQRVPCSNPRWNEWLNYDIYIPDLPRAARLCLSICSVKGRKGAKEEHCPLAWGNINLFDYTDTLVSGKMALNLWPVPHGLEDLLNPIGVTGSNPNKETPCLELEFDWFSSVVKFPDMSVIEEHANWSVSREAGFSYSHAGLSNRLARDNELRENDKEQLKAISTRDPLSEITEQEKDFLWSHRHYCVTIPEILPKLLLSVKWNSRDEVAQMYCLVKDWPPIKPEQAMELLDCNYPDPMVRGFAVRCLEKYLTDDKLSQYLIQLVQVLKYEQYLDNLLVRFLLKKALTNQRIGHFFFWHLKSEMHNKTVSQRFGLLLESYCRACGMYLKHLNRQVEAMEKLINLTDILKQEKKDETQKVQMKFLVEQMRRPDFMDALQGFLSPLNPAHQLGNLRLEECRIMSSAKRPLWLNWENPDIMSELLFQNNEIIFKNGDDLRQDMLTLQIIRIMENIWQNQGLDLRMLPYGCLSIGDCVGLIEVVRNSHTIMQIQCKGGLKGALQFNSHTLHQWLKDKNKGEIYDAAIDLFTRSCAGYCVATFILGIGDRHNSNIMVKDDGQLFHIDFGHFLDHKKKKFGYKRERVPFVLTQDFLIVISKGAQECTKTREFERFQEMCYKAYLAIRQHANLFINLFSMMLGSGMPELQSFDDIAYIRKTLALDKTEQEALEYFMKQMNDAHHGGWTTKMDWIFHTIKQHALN
T3 sequence (P27986 whole entry partner): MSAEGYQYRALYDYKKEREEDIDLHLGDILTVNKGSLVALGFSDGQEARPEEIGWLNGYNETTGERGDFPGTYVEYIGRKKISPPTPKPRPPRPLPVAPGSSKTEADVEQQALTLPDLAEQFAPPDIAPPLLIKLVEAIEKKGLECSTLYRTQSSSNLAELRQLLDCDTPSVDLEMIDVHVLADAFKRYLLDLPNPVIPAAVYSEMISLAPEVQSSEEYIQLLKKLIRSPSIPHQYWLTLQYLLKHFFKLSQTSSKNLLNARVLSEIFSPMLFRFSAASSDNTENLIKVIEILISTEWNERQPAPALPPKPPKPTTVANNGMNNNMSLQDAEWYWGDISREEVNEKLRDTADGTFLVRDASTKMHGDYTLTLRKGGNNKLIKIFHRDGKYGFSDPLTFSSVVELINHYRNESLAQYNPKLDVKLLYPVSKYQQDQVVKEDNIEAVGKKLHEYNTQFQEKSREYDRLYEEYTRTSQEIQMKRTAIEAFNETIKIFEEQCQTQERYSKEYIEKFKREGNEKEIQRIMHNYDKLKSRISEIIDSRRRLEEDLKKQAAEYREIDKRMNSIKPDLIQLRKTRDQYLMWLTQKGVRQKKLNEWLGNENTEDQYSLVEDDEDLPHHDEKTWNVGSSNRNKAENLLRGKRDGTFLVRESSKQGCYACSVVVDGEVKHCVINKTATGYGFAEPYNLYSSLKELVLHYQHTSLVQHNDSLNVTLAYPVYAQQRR

p38γ = biological target: T4, p38γ (Homo sapiens, UniProt P53778); assay: Kinase panel, CaNDY 1 µM; assay type: biochemical; settings: CaNDY 1 µM relative to DMSO
T4 construct: purchased Carna Biosciences
T4 sequence (P53778 whole entry): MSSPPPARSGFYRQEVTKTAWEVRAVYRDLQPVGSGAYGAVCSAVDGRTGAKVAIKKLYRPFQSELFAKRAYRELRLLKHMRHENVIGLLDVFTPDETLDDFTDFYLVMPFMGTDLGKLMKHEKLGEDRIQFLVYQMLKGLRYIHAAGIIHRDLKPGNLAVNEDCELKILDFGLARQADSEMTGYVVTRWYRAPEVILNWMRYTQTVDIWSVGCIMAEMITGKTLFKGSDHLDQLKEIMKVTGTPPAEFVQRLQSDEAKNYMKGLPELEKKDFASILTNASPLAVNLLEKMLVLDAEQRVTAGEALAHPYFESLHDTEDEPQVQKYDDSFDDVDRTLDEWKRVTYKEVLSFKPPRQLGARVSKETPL

p70S6K = biological target: T5, p70S6K (Homo sapiens, UniProt P23443); assay: Kinase panel, CaNDY 1 µM; assay type: biochemical; settings: CaNDY 1 µM relative to DMSO
T5 construct: purchased Carna Biosciences

RET = biological target: T6, RET (Homo sapiens, UniProt P07949); assay: Kinase panel, CaNDY 1 µM; assay type: biochemical; settings: CaNDY 1 µM relative to DMSO
T6 construct: purchased Carna Biosciences
T6 sequence (P07949 29-1114): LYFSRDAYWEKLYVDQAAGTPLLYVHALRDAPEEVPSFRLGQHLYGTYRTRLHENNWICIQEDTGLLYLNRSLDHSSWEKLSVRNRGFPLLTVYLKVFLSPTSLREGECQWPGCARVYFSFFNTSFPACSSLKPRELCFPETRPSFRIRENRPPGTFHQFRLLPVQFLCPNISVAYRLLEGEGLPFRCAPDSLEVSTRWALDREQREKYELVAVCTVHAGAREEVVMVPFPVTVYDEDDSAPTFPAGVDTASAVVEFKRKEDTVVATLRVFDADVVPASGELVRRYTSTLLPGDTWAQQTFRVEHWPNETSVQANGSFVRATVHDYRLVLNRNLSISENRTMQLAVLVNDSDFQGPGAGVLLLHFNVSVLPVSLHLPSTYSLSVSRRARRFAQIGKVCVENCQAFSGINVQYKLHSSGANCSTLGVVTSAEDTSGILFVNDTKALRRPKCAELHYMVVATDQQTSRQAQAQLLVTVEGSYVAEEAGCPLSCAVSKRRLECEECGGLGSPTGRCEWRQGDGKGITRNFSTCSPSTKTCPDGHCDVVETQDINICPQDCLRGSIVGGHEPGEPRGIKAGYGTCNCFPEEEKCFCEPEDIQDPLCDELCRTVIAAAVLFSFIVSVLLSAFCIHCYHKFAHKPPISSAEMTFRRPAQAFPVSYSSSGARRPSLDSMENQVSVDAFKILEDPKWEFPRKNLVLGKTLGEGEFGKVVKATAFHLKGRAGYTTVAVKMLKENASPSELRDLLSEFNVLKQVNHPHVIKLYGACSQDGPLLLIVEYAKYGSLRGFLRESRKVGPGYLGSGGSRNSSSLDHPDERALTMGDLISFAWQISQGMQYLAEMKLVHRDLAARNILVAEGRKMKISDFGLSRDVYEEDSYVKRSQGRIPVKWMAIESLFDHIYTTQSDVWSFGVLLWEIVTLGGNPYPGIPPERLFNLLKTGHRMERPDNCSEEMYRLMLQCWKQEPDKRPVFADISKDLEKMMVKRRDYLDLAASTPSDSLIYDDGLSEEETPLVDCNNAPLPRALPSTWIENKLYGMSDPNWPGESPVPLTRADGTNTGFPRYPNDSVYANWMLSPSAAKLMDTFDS

MAP2K5_Cascade = biological target: T7, MAP2K5_Cascade (Homo sapiens, UniProt Q13163); assay: Kinase panel, CaNDY 1 µM; assay type: biochemical; settings: CaNDY 1 µM relative to DMSO
T7 construct: purchased Carna Biosciences

MLK1_Cascade = biological target: T8, MLK1_Cascade (Homo sapiens, UniProt P80192); assay: Kinase panel, CaNDY 1 µM; assay type: biochemical; settings: CaNDY 1 µM relative to DMSO
T8 construct: purchased Carna Biosciences

CK2α1/β = biological target: T9, CK2α1/β (Homo sapiens, UniProt P68400); assay: Kinase panel, CaNDY 1 µM; assay type: biochemical
T9 construct: purchased Carna Biosciences
T9 sequence (P68400 whole entry): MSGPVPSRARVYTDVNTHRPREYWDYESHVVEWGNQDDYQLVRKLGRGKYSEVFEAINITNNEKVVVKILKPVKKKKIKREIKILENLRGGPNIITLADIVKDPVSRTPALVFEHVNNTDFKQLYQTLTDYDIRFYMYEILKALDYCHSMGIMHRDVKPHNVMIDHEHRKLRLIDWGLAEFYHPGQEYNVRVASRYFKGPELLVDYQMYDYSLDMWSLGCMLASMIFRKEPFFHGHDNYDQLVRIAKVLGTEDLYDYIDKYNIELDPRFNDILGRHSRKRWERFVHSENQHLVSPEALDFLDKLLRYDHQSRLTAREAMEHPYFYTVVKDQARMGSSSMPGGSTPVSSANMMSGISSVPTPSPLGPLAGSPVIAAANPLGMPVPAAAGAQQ
T9 sequence (P67870 whole entry partner): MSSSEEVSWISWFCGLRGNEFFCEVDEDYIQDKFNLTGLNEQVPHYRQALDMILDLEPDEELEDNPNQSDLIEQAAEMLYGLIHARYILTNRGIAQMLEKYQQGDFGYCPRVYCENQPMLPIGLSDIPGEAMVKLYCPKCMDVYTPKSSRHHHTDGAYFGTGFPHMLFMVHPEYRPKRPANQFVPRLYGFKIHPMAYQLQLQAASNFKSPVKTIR

CRIK = biological target: T10, CRIK (Homo sapiens, UniProt O14578); assay: Kinase panel, CaNDY 1 µM; assay type: biochemical; settings: CaNDY 1 µM relative to DMSO
T10 construct: purchased Carna Biosciences

EGFR(d746-750/T790M) = biological target: T11, EGFR(d746-750/T790M) (Homo sapiens, UniProt P00533, DEL746-750/T790M); assay: Kinase panel, CaNDY 1 µM; assay type: biochemical; settings: CaNDY 1 µM relative to DMSO
T11 construct: purchased Carna Biosciences

3xFLAG-DYRK1A = biological target: T12, 3xFLAG-DYRK1A (Homo sapiens, UniProt Q13627); assay: Western blot of 3xFLAG-DYRK1A level in transfected 293T cells; assay type: cell-based; settings: CaNDY 2 μM, 8 h, compared with DMSO
T12 construct: F2A peptide linking to EGFP (2A skipping releases EGFP; a 2A remnant may stay on DYRK1A) (C); expressed in transfected cells; host or cells: 293T cells, transient
Experimental: To investigate whether DYRK1A is a client kinase of the CDC37/HSP90 system, we used a HSP90 inhibitor, ganetespib. 293T cells were transiently transfected with an expression vector of 3xFLAG-tagged DYRK1A (3xFLAG-DYRK1A). At 24 h after transfection, the cells were treated with ganetespib for the indicated time (0–8 h). Total cell lysates were collected and subjected to SDS-PAGE followed by Western blot analysis.
Figure 1 Ganetespib, a HSP90 inhibitor, decreases the DYRK1A protein level. 293T cells were transiently transfected with an expression vector for 3xFLAG-DYRK1A. At 24 h after transfection, the cells were treated with ganetespib (100 nM) and collected 0 and 8 h after treatment. Total cell lysates were subjected to SDS-PAGE followed by Western blot analysis using antibodies against FLAG and GAPDH. In the control group (DMSO), expression of 3xFLAG-DYRK1A increased at 8 h compared to 0 h, and ganetespib suppressed this increase of 3xFLAG-DYRK1A.
Western blot analysis was performed using the antibodies described above. In brief, total cell lysates were separated by SDS-PAGE (5–20% gels; ATTO, Tokyo, Japan) under reducing conditions and then transferred to a PVDF membrane (PALL, SP, Brazil). Antibody reactions were performed with Can Get Signal® Immunoreaction Enhancer Solution (Toyobo). Peroxidase activities on the membrane were visualized with ECL Western Blotting Detection Reagents (GE Healthcare) or ImmunoStar® LD (Wako Pure Chemical Industries, Osaka, Japan), and a ChemiDoc^TM MP Imaging System (Bio-Rad, Hercules, CA, USA).

CaMK2γ = biological target: T13, CaMK2γ (Homo sapiens, UniProt Q13555); assay: Kinase panel, CaNDY 1 µM; assay type: biochemical; settings: CaNDY 1 µM relative to DMSO
T13 construct: purchased Carna Biosciences

CLK1, sequence (P49759 whole entry, the tested form may be a part): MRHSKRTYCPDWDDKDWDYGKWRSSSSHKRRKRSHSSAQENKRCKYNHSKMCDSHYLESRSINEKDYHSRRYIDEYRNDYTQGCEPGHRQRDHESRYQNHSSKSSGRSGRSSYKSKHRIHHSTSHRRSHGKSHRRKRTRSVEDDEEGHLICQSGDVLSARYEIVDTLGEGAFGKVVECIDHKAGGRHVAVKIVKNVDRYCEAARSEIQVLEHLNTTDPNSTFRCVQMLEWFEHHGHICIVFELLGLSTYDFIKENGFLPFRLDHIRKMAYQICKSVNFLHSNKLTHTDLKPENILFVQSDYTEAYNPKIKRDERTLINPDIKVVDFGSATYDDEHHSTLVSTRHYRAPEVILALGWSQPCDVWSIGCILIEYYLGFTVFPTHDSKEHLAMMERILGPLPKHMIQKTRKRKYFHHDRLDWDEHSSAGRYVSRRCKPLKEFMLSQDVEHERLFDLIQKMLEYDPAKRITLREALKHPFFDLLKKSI
T1 sequence (P78368 whole entry): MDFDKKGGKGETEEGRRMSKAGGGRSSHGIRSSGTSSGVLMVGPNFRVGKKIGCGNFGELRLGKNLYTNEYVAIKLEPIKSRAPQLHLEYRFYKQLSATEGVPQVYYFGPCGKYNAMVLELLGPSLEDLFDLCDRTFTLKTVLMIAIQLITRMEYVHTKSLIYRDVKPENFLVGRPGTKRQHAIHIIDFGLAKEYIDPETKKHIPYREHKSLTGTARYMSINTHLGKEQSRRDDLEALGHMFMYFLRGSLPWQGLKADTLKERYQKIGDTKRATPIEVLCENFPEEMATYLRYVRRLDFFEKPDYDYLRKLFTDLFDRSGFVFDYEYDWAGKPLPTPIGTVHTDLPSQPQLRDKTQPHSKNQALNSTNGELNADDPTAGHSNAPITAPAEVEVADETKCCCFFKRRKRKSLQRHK

For [H]/N=C1/NC(=O)C(=Cc2ccc3c(c2)CCO3)S1 [CaNDY, (Z)-5-[(2,3-dihydrobenzofuran-5-yl)methylene]-2-iminothiazolidin-4-one], the “%Activity” value (CK1γ2) was 75.4%, the “%Activity” value (CLK1; CLK1, CaNDY 1 µM relative to DMSO) was 3.0% and the inhibition at 1 µM (CLK1; read-out: percentage inhibition) was over 90%. The “%Activity” value (TYK2) was 97.4%, the remaining activity at 1 µM (PIK3CA/PIK3R1) was 38.5% and the remaining activity at 1 µM (p38γ) was 91.4%. The remaining activity at 1 µM (p70S6K) was 89.7%, the remaining activity at 1 µM (RET) was 102% and the remaining activity at 1 µM (MAP2K5_Cascade) was 101%. The remaining activity at 1 µM (MLK1_Cascade) was 99.9%, the remaining activity at 1 µM (CK2α1/β; CK2α1/β, CaNDY 1 µM relative to DMSO) was 34.7% and the inhibition at 1 µM (CK2α1/β; CK2α, 1 μM CaNDY, read-out: percentage inhibition) was 65%. The “%Activity” value (CRIK) was 87.0%, the “%Activity” value (EGFR(d746-750/T790M)) was 101.0% and the 3xFLAG-DYRK1A level (3xFLAG-DYRK1A) was “decreased the 3xFLAG-DYRK1A level”. The remaining activity at 1 µM (CaMK2γ) was 101%.

— PMC4522657, “Identification of a DYRK1A Inhibitor that Induces Degradation of the Target Kinase using Co-chaperone CDC37 fused with Luciferase nanoKAZ” (Scientific Reports, 2015)
